The numbers were not newly measured in patent US10702520B1, “Pharmaceutical compositions of posaconazole” (SLAYBACK PHARMA LLC, priority 2019, dated 2020), which cites them from elsewhere.

The solubility is the dissolved amount per volume that the medium holds.

The structures appear in SMILES notation. Read-outs that look alike come from different tables or passages of the source.

On to `CCC(C)n1ncn(-c2ccc(N3CCN(c4ccc(OC[C@H]5CO[C@](Cn6cncn6)(c6ccc(Cl)cc6Cl)O5)cc4)CC3)cc2)c1=O` (mixture of isomers) [Itraconazole], for which the solubility by setting is: (in 0.1 N Hydrochloric acid) 6 µg/mL; (in water) “less than 1 μg/mL”.
For the molecule `CC[C@@H]([C@H](C)O)n1ncn(-c2ccc(N3CCN(c4ccc(OC[C@@H]5CO[C@@](Cn6cncn6)(c6ccc(F)cc6F)C5)cc4)CC3)cc2)c1=O` [Posaconazole free base, 4-[4-[4-[4-[[(3R,5R)-5-(2,4-difluorophenyl)tetrahydro-5-(1H-1,2,4-triazol-1-ylmethyl)-3-furanyl]methoxy]phenyl]-1-piperazinyl]phenyl]-2-[(1S,2S)-1-ethyl-2-hydroxypropyl]-2,4-dihydro-3H-1,2,4-triazol-3-one], the solubility entry is listed as “approximately 0.8 mg/mL” (at gastric pH) and “less than 1 μg/mL” (pH about 6.4 or higher).
